# US8580773B2, “Small-molecule inhibitors of the androgen receptor” (The Regents of the University of California, priority 2008, dated 2013)
# Where a name gives a salt, the structure may show the parent alone.
# Experiments:
# endogenous AR [1] = molecular target: T1, endogenous AR (Homo sapiens, UniProt P10275); format: cell-based; conditions: LAPC4, 3 nM DHT plus 1 μM BIC, 100 nM PP or 100 nM HH
# T1 construct: that each express endogenous AR; endogenous in cells; host or cells: LAPC4
# T1 sequence (P10275 1-920): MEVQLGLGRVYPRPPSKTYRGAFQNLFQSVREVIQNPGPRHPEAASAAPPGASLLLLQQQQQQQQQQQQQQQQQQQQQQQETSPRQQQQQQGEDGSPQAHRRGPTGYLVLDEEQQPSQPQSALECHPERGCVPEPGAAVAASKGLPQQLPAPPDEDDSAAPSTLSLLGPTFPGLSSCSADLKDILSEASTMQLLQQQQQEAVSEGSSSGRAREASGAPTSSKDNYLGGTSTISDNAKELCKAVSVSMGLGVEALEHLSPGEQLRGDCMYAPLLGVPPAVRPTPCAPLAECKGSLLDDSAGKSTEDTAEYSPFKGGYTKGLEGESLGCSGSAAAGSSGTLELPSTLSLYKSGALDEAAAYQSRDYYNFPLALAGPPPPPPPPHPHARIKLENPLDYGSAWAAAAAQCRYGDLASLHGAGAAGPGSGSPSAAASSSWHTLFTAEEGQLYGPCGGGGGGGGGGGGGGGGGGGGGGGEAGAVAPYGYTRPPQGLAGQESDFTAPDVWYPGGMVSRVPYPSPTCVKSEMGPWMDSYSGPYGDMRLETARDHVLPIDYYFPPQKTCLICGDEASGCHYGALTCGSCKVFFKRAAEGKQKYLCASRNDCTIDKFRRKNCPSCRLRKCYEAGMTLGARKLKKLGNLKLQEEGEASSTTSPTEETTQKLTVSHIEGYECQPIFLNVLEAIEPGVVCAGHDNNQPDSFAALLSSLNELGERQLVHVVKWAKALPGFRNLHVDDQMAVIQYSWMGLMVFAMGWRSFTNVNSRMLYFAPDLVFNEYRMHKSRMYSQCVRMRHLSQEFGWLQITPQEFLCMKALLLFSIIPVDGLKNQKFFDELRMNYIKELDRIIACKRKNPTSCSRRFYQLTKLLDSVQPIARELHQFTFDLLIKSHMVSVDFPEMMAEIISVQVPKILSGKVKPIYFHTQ
# Description: (§1) LAPC4 and LNCaP cells were grown in the presence or absence of 3 nM DHT in charcoal-stripped media, with or without the inhibitors. RNA was harvested using an RNAeasy kit (Qiagen) and reverse transcribed (MMLV-RT, Invitrogen). Real-time PCR was carried out on a 7300 Real Time PCR System (Applied Biosystems) using SYBR green as the detecting dye and Rox as the reference dye. The androgen responsive genes kalikrein 3, or PSA (KLK3) [Cleutjens, K. B., et al., Two androgen response regions cooperate in steroid hormone regulated activity of the prostate-specific antigen promoter. J Biol Chem, 1996. 271(11): p. 6379-88; Nelson, P. S., et al., The program of androgen-responsive genes in neoplastic prostate epithelium. Proc Natl Acad Sci USA, 2002. 99(18): p. 11890-5), metalloproteinase 16 (MMP16) (Nelson, P. S., et al., The program of androgen-responsive genes in neoplastic prostate epithelium. Proc Natl Acad Sci USA, 2002. 99(18): p. 11890-5), transmembrane protease serine 2 (TMPRSS2) (Nelson, P. S., et al., The program of androgen-responsive genes in neoplastic prostate epithelium. Proc Natl Acad Sci USA, 2002. 99(18): p. 11890-5; […] Vaarala, M. H., et al., Expression of transmembrane serine protease TMPRSS2 in mouse and human tissues. J Pathol, 2001. 193(1): p. 134-40), FK506-binding immunophilin 51 (FKBP51) (Nelson, P. S., et al., The program of androgen-responsive genes in neoplastic prostate epithelium. Proc Natl Acad Sci USA, 2002. 99(18): p. 11890-5; Amler, L. C., et al., Dysregulated expression of androgen-responsive and nonresponsive genes in the androgen-independent prostate cancer xenograft model CWR22-R1. Cancer Res, 2000. 60(21): p. 6134-41; Velasco, A. M., et al., Identification and validation of novel androgen-regulated genes in prostate cancer. Endocrinology, 2004. 145(8): p. 3913-24; Magee, J. A., et al., Direct, androgen receptor-mediated regulation of the FKBP5 gene via a distal enhancer element. Endocrinology, 2006. 147(1): p. 590-8), G-protein coupled receptor RDC1 homolog, or chemokine orphan receptor 1 (RDC-1) (Nelson, P. S., et al., The program of androgen-responsive genes in neoplastic prostate epithelium. Proc Natl Acad Sci USA, 2002. 99(18): p. 11890-5), NK homeobox family member 3 (NRx3.1) (Nelson, P. S., et al., The program of androgen-responsive genes in neoplastic prostate epithelium. Proc Natl Acad Sci USA, 2002. 99(18): p. 11890-5; Bieberich, C. J., et al., Prostate-specific and androgen-dependent expression of a novel homeobox gene. J Biol Chem, 1996. 271(50): p. 31779-82; […]) were all normalized to the transcription of the housekeeping ribosomal gene (RPL19). All samples were done in triplicate and separately normalized.
# endogenous AR [2] = molecular target: T2, endogenous AR (Homo sapiens, UniProt P10275, T878A); format: cell-based; conditions: LNCaP, 3 nM DHT plus 1 μM BIC, 100 nM PP or 100 nM HH
# T2 construct: that each express endogenous AR; endogenous in cells; host or cells: LNCaP
# T2 sequence (P10275 whole entry T878A): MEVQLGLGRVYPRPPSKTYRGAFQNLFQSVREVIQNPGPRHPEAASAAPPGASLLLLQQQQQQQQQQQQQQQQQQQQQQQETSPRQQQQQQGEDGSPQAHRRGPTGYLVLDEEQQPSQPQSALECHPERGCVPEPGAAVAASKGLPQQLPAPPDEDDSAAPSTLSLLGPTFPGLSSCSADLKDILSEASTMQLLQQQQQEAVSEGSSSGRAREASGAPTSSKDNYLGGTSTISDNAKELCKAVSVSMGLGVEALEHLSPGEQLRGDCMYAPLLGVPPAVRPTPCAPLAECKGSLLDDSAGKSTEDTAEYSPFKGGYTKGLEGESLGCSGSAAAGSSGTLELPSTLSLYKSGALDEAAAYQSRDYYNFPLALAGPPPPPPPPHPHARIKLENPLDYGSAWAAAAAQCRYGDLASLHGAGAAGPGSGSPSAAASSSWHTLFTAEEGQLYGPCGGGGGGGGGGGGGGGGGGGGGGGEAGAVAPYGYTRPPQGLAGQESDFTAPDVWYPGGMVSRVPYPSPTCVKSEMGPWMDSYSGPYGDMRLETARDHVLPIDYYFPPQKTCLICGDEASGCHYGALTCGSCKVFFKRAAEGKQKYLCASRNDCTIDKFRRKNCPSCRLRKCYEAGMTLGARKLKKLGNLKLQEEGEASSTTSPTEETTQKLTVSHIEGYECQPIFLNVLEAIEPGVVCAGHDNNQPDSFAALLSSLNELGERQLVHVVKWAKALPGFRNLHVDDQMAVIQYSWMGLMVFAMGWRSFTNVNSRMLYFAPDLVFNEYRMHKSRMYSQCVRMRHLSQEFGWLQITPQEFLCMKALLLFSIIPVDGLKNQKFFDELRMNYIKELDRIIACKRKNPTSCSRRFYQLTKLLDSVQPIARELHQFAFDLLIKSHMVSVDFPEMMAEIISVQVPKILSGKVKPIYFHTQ
# Description: as §1
smiles,measurement,setting,value
"Cc1nccc2c1[nH]c1cc(O)ccc12 [HH, harmol hydrochloride]",Nkx3.1 transcription (normalized to RPL19),"endogenous AR [1]; No DHT = 1, 3 nM DHT = 1.08",1.55
same,TMPRSS2 transcription (normalized to RPL19),"endogenous AR [1]; No DHT = 1, 3 nM DHT = 1.13",1.86
same,KLK3 transcription (normalized to RPL19),"endogenous AR [1]; No DHT = 1, 3 nM DHT = 1.97",1.64
same,FKBP51 transcription (normalized to RPL19),"endogenous AR [1]; No DHT = 1, 3 nM DHT = 21.4",11.96
same,RDC1 transcription (normalized to RPL19),"endogenous AR [1]; androgen-repressed gene, No DHT = 1, 3 nM DHT = 0.63",2.88
same,MMP16 transcription (normalized to RPL19),"endogenous AR [1]; androgen-repressed gene, No DHT = 1, 3 nM DHT = 0.71",4.74
same,KLK3 transcription (normalized to RPL19),"endogenous AR [2]; No DHT = 1, 3 nM DHT = 1.89",1.46
same,Nkx3.1 transcription (normalized to RPL19),"endogenous AR [2]; No DHT = 1, 3 nM DHT = 2.00",1.28
same,FKBP51 transcription (normalized to RPL19),"endogenous AR [2]; No DHT = 1, 3 nM DHT = 2.15",1.90
same,TMPRSS2 transcription (normalized to RPL19),"endogenous AR [2]; No DHT = 1, 3 nM DHT = 3.70",1.22
same,MMP16 transcription (normalized to RPL19),"endogenous AR [2]; androgen-repressed gene, No DHT = 1, 3 nM DHT = 0.61",1.02
same,RDC1 transcription (normalized to RPL19),"endogenous AR [2]; androgen-repressed gene, No DHT = 1, 3 nM DHT = 0.66",1.22
